Like-named read-outs stand apart in the source and are kept apart here.
Experiments:
[1] = target: GDP-bound protein (aa 1-169), containing both G12C and C118A amino acid substitutions (Homo sapiens, UniProt P01116, C118A/G12C); assay: Coupled Nucleotide Exchange Assay (SOS-mediated nucleotide exchange, AlphaScreen); assay type: biochemical; conditions: 2 hours compound pre-incubation
Method in brief: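 His-tagged GDP-bound […] (aa 1-169, G12C/C118A) pre-incubated 2 h with compound titration in 25 mM HEPES pH 7.4, 10 mM MgCl2, 0.01% Triton X-100.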

[2] = test system: Phosphorylation of ERK½ in MIA PaCa-2 cells; assay: Phospho-ERK½ MSD Assay in MIA PaCa-2 cells; assay type: cell-based; conditions: 4 hours compound treatment, 10 ng/mL EGF for 10 min, read-out: p-ERK IC50 (MIA PaCa-2)
Method in brief: (§1)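 MIA PaCa-2 or A549 cells (25,000/well, RPMI with 10% FBS) exposed to compound titration for 4 h at 37 °C, then stimulated with 10 ng/mL EGF for 10 min and lysed in RIPA. Phospho-ERK1/2 quantified by MSD whole-cell lysate immunoassay; IC50 from 4-parameter logistic fit.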

[3] = test system: Phosphorylation of ERK½ in A549 cells; assay: Phospho-ERK½ MSD Assay in A549 cells; assay type: cell-based; conditions: 4 hours compound treatment, 10 ng/mL EGF for 10 min, read-out: p-ERK IC50 (A549)
Method in brief: as §1

[4] = Homo sapiens, MIA PaCa-2, MIA PaCa-2 cells

Chain of GDP-bound protein (aa 1-169), containing both G12C and C118A amino acid substitutions (P01116 1-169 isoform P01116-2 G12C/C118A): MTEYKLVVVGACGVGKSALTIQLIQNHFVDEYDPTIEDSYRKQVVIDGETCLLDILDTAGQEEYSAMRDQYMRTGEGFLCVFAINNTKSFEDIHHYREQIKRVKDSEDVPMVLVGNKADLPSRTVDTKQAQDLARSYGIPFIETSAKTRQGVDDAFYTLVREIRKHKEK

Coupled exchange IC50 [1] [µM] | IC50 [2, 4] [µM] | IC50 ([3]; Homo sapiens, A549, A549 cells) [µM] | IC50 ([2]; MIA PaCa-2 cells) [µM] | IC50 ([3]; A549 cells) [µM] | SMILES
9.07 | 23.7 | > 100 | – | – | C=CC(=O)N1CCN(c2snc3c(F)c(-c4cccc5cccnc45)c(Cl)cc23)CC1 [Example 3-24, 1-(4-(5-chloro-7-fluoro-6-(quinolin-8-yl)benzo[c]isothiazol-3-yl)piperazin-1-yl)prop-2-en-1-one]
1.62 | 4.69 | 3.7 | – | – | C=CC(=O)N1CCN(c2snc3c(F)c(-c4cc(O)cc5cnn(C)c45)c(Cl)cc23)CC1 [Example 19-2, 1-(4-(5-chloro-7-fluoro-6-(5-hydroxy-1-methyl-1H-indazol-7-yl)-2,1-benzothiazol-3-yl)-1-piperazinyl)-2-propen-1-one]
0.100 | – | – | 0.012 | 69.9 | C=CC(=O)N1CCN(c2nc(=O)n(-c3ccccc3C(C)C)c3nc(-c4c(O)cccc4F)c(Cl)cc23)[C@@H](C)C1 [Example 8-6, 6-chloro-7-(2-fluoro-6-hydroxyphenyl)-4-((2S)-2-methyl-4-(2-propenoyl)-1-piperazinyl)-1-(2-(2-propanyl)phenyl)pyrido[2,3-d]pyrimidin-2(1H)-one]
0.492 | 4.83 | > 100 | – | – | C=CC(=O)N1CCN(c2snc3c(F)c(-c4cc(O)cc5ccccc45)c(Cl)cc23)C[C@@H]1CO (racemic) [Example 1-16, 1-(4-(5-chloro-7-fluoro-6-(3-hydroxy-1-naphthalenyl)-2,1-benzothiazol-3-yl)-2-(hydroxmethyl)-1-piperazinyl)-2-propen-1-one]
0.341 | 2.53 | > 100 | – | – | C=CC(=O)N1CC[C@@H]2[C@H]1CN2c1snc2c(F)c(-c3cc(O)cc4ccccc34)c(Cl)cc12 [Example 5-5, 1-((1R,5R)-6-(5-chloro-7-fluoro-6-(3-hydroxy-1-naphthalenyl)-2,1-benzothiazol-3-yl)-2,6-diazabicyclo[3.2.0]heptan-2-yl)-2-propen-1-one]
0.209 | 1.86 | > 100 | – | – | C=CC(=O)N1CCN(c2snc3c(F)c(-c4cc(O)cc5ccccc45)c(Cl)cc23)C(CO)C1 (stereo in doubt) [Example 1-7, 1-((3R)-4-(5-chloro-7-fluoro-6-(3-hydroxy-1-naphthalenyl)-2,1-benzothiazol-3-yl)-3-(hydroxymethyl)-1-piperazinyl)-2-propen-1-one]
5.10 | – | – | > 100 | > 100 | C=CC(=O)N1CCN(c2snc3c(F)c(-c4cc(O)cc5ccccc45)c(Cl)cc23)[C@@H](C)C1 (single isomer, unassigned) [Example 1-19-2]
0.237 | 3.51 | > 100 | – | – | C=CC(=O)N1CCN(c2nc(=O)n(-c3ccncc3C3CC3)c3cc(-c4c(O)cccc4F)c(Cl)cc23)CC1 [Example 9-6, 6-chloro-1-(3-cyclopropyl-4-pyridinyl)-7-(2-fluoro-6-hydroxyphenyl)-4-(4-(2-propenoyl)-1-piperazinyl)-2(1H)-quinazolinone]
0.529 | 2.34 | > 100 | – | – | C=CC(=O)N1CC2(C1)CN(c1snc3c(F)c(-c4cc(O)cc5ccccc45)c(Cl)cc13)C2 [Example 4-1, 1-(6-(5-Chloro-7-fluoro-6-(3-hydroxynaphthalen-1-yl)benzo[c]isothiazol-3-yl)-2,6-diazaspiro[3.3]heptan-2-yl)prop-2-en-1-one]
0.172 | – | – | 0.046 | 69.8 | C=CC(=O)N1CCN(c2nc(=O)n(-c3ccccc3C(C)C)c3cc(-c4c(O)cccc4F)c(Cl)cc23)CC1 (single isomer, unassigned) [Example 8-1-1, 6-chloro-7-(2-fluoro-6-hydroxyphenyl)-1-(2-(2-propanyl)phenyl)-4-(4-(2-propenoyl)-1-piperazinyl)-2(1H)-quinazolinone]
2.88 | 36.2 | > 100 | – | – | C=CC(=O)N1CCN(c2snc3cc(-c4c(O)cccc4F)c(Cl)cc23)CC1 [Example 1-6, 1-(4-(5-chloro-6-(2-fluoro-6-hydroxyphenyl)-2,1-benzothiazol-3-yl)-1-piperazinyl)-2-propen-1-one]
0.630 | 10.3 | > 100 | – | – | C=CC(=O)NC1CN(c2snc3c(F)c(-c4cc(O)cc5ccccc45)c(Cl)cc23)C1 [Example 4-6, N-(1-(5-chloro-7-fluoro-6-(3-hydroxy-1-naphthalenyl)-2,1-benzothiazol-3-yl)-3-azetidinyl)-2-propenamide]
0.113 | 0.035 | 66.1 | – | – | C=CC(=O)N1CCN(c2nc(=O)n(-c3ccccc3C(C)C)c3cc(-c4cc(N)ccc4Cl)c(Cl)cc23)[C@@H](C)C1 [Example 9-3, 7-(5-amino-2-chlorophenyl)-6-chloro-4-((2S)-2-methyl-4-(2-propenoyl)-1-piperazinyl)-1-(2-(2-propanyl)phenyl)-2(1H)-quinazolinone]
7.51 | 58 | > 100 | – | – | C=CC(=O)N1CCN(c2nnc(-c3ccccc3)c3cc(-c4c(O)cccc4F)c(Cl)cc23)CC1 [Example 30, 2-(1-(4-Acryloyl-1-piperazinyl)-7-chloro-4-phenyl-6-phthalazinyl)-3-fluorophenol]
0.912 | 72.6 | > 100 | – | – | C=CC(=O)N1CCN(c2nnc(-c3c(C)ccc4[nH]ncc34)c3cc(-c4c(O)cccc4F)c(Cl)cc23)CC1 [Example 10-12, 1-(4-(7-chloro-6-(2-fluoro-6-hydroxyphenyl)-4-(5-methyl-1H-indazol-4-yl)-1-phthalazinyl)-1-piperazinyl)-2-propen-1-one]
1.10 | 9.33 | > 100 | – | – | C=CC(=O)N1CCN(c2nnc(-c3cc(Cl)ccc3C)c3cc(-c4c(O)cccc4F)c(Cl)cc23)CC1 [Example 10-3, 1-(4-(7-chloro-4-(5-chloro-2-methylphenyl)-6-(2-fluoro-6-hydroxyphenyl)-1-phthalazinyl)-1-piperazinyl)-2-propen-1-one]
0.610 | 3.25 | > 100 | – | – | C=CC(=O)N1CCN(c2snc3c(F)c(-c4cc(O)cc5ccccc45)c(Cl)cc23)C[C@@H]1C [Example 5-4, 1-((2S)-4-(5-chloro-7-fluoro-6-(3-hydroxy-1-naphthalenyl)-2,1-benzothiazol-3-yl)-2-methyl-1-piperazinyl)-2-propen-1-one]
0.266 | – | > 100 | 3.23 | – | C=CC(=O)N1CCN(c2snc3c(F)c(-c4cc(O)cc5ccccc45)c(Cl)cc23)CC1 [Example 3-1, 1-(4-(5-Chloro-7-fluoro-6-(3-hydroxynaphthalen-1-yl)benzo[c]isothiazol-3-yl)piperazin-1-yl)prop-2-en-1-one]
0.760 | > 100 | > 100 | – | – | C=C(CBr)C(=O)N1CCN(c2snc3c(F)c(-c4cc(O)cc5ccccc45)c(Cl)cc23)CC1 [Example 18-2, 2-(Bromomethyl)-1-(4-(5-chloro-7-fluoro-6-(3-hydroxy-1-naphthalenyl)-2,1-benzothiazol-3-yl)-1-piperazinyl)-2-propen-1-one]
0.256 | – | – | 0.006 | 26.4 | C=CC(=O)N1CCN(c2nc(=O)n(-c3ccccc3C(C)C)c3cc(-c4c(C)ccc5[nH]ncc45)c(Cl)cc23)[C@@H](C)C1 (single isomer, unassigned) [Example 11-2-2]
0.301 | 0.747 | > 100 | – | – | C=CC(=O)N1CCN(c2snc3c(F)c(-c4c(O)cccc4F)c(Cl)cc23)C(C(F)F)C1 (racemic) [Example 2-9, 1-(4-(5-chloro-7-fluoro-6-(2-fluoro-6-hydroxyphenyl)-2,1-benzothiazol-3-yl)-3-(difluoromethyl)-1-piperazinyl)-2-propen-1-one]
0.093 | 0.147 | 64 | – | – | C=CC(=O)N1CCN(c2nc(=O)n(-c3ccccc3C(C)C)c3cc(-c4ccccc4Cl)c(Cl)cc23)[C@@H](C)C1 [Example 9-11, 6-chloro-7-(2-chlorophenyl)-4-((2S)-2-methyl-4-(2-propenoyl)-1-piperazinyl)-1-(2-(2-propanyl)phenyl)-2(1H)-quinazolinone]

SMILES | Coupled exchange IC50 [1] [µM] | IC50 [2, 4] [µM] | IC50 ([3]; Homo sapiens, A549, A549 cells) [µM] | IC50 ([2]; MIA PaCa-2 cells) [µM] | IC50 ([3]; A549 cells) [µM]
C=CC(=O)N1CCN(c2nc(=O)n(-c3ccccc3C(C)C)c3cc(-c4c(O)cccc4F)c(Cl)cc23)[C@@H](C)C1 (single isomer, unassigned) [Example 8-3-1] | 0.282 | – | > 100 | 0.408 | –
C=CC(=O)N1CCN(c2nnc(-c3ccccc3OC)c3cc(-c4c(O)cccc4F)c(Cl)cc23)CC1 [Example 10-2, 1-(4-(7-chloro-6-(2-fluoro-6-hydroxyphenyl)-4-(2-methoxyphenyl)phthalazin-1-yl)piperazin-1-yl)prop-2-en-1-one] | 1.93 | 36.1 | > 100 | – | –

Source: patent US11285135B2 (AMGEN INC., priority 2016, dated 2022)
